{"source": "patent US8846947B2", "about": "“Benzimidazoles and related analogs as sirtuin modulators” (GlaxoSmithKline LLC, priority 2008, dated 2014)", "data": [{"target": "T1, SIRT1 (Homo sapiens, UniProt Q96EB6)", "T1 sequence (Q96EB6 1-747)": "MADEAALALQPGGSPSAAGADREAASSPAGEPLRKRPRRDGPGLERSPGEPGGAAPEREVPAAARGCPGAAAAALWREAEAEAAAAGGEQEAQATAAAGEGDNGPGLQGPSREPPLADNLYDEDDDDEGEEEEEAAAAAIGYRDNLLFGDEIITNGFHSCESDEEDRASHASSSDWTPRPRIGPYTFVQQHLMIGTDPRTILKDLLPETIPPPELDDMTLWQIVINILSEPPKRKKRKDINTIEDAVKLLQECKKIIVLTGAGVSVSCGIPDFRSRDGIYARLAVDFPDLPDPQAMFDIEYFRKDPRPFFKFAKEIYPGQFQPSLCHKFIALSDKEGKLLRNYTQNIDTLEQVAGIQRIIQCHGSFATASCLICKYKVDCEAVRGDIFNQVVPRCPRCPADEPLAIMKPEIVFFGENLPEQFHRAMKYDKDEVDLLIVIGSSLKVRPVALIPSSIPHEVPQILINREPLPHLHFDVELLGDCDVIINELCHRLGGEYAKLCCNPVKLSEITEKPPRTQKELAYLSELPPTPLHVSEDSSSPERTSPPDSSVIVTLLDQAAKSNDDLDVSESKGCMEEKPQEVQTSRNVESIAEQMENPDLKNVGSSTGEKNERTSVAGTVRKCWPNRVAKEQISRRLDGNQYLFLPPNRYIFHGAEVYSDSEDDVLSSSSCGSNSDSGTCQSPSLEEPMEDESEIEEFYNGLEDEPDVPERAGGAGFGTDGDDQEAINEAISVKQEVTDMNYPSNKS", "assay": "Mass spectrometry based SIRT1 deacetylase activation assay (acetylated p53-derived peptide substrate)", "type": "biochemical", "details": "0.5 μM peptide substrate, 120 μM βNAD+, 10 nM SIRT1, 25 minutes at 25° C.", "values": [{"molecule": "C[C@@H]1CN(CCOc2ccccc2-c2nc3c(C(=O)Nc4ccccn4)cccc3[nH]2)C[C@H](C)O1", "note": "[Compound 610]", "EC1.5": "B (EC1.5 1-25 uM)", "Fold Act. (percent maximum fold activation)": "A (Fold activation >200%)"}, {"molecule": "O=C(Nc1nccs1)c1cccc2[nH]c(-c3ccccc3OCCN3CCCC(F)(F)C3)nc12", "note": "[Compound 611]", "EC1.5": "C (EC1.5 >25 uM)", "Fold Act. (percent maximum fold activation)": "B (Fold Activation <200%)"}, {"molecule": "O=C(Nc1ccccn1)c1cccc2[nH]c(-c3ccccc3OCCN3CCCC(F)(F)C3)nc12", "note": "[Compound 612]", "EC1.5": "C (EC1.5 >25 uM)", "Fold Act. (percent maximum fold activation)": "B (Fold Activation <200%)"}, {"molecule": "O=C(Nc1ccccn1)c1cccc2[nH]c(-c3ccccc3OCCN3CCC(F)(F)CC3)nc12", "note": "[Compound 613]", "EC1.5": "B (EC1.5 1-25 uM)", "Fold Act. (percent maximum fold activation)": "B (Fold Activation <200%)"}, {"molecule": "O=C(Nc1nccs1)c1cccc2[nH]c(-c3ccccc3OCCN3CCC(F)(F)C3)nc12", "note": "[Compound 614]", "EC1.5": "C (EC1.5 >25 uM)", "Fold Act. (percent maximum fold activation)": "B (Fold Activation <200%)"}, {"molecule": "O=C(Nc1ccccn1)c1cccc2[nH]c(-c3ccccc3OCCN3CCC(F)(F)C3)nc12", "note": "[Compound 615]", "EC1.5": "C (EC1.5 >25 uM)", "Fold Act. (percent maximum fold activation)": "B (Fold Activation <200%)"}, {"molecule": "CC(C)(C)NCCOc1ccccc1-c1nc2c(C(=O)Nc3ccccn3)cccc2[nH]1", "note": "[Compound 616]", "EC1.5": "B (EC1.5 1-25 uM)", "Fold Act. (percent maximum fold activation)": "A (Fold activation >200%)"}, {"molecule": "FC(F)(F)c1cccc(-c2nc3c(NCc4cccnc4)cccc3[nH]2)c1", "note": "[Compound 617]", "EC1.5": "B (EC1.5 1-25 uM)", "Fold Act. (percent maximum fold activation)": "B (Fold Activation <200%)"}, {"molecule": "FC(F)(F)c1ccccc1-c1nc2c(NCc3cccnc3)cccc2[nH]1", "note": "[Compound 618]", "EC1.5": "C (EC1.5 >25 uM)", "Fold Act. (percent maximum fold activation)": "B (Fold Activation <200%)"}, {"molecule": "c1cncc(CNc2cccc3[nH]c(-c4cccc(N5CCOCC5)c4)nc23)c1", "note": "[Compound 619]", "EC1.5": "B (EC1.5 1-25 uM)", "Fold Act. (percent maximum fold activation)": "B (Fold Activation <200%)"}, {"molecule": "O=C(Nc1cccc(CN2CCCC2)n1)c1cccc2[nH]c(-c3ccccc3C(F)(F)F)nc12", "note": "[Compound 620, N-(6-(pyrrolidin-1-ylmethyl)pyridin-2-yl)-2-(2-(trifluoromethyl)phenyl)-1H-benzo[d]imidazole-4-carboxamide]", "EC1.5": "A (EC1.5<1.0 uM)", "Fold Act. (percent maximum fold activation)": "A (Fold activation >200%)"}, {"molecule": "O=C(Nc1ccc(CN2CCNCC2)cn1)c1cccc2[nH]c(-c3ccccc3C(F)(F)F)nc12", "note": "[Compound 621, N-(5-(piperazin-1-ylmethyl)pyridin-2-yl)-2-(2-(trifluoromethyl)phenyl)-1H-benzo[d]imidazole-4-carboxamide]", "EC1.5": "A (EC1.5<1.0 uM)", "Fold Act. (percent maximum fold activation)": "A (Fold activation >200%)"}, {"molecule": "O=C(Nc1cccc(CN2CCCC2)n1)c1cccc2[nH]c(-c3ccc(Cl)cc3C(F)(F)F)nc12", "note": "[Compound 622]", "EC1.5": "A (EC1.5<1.0 uM)", "Fold Act. (percent maximum fold activation)": "A (Fold activation >200%)"}, {"molecule": "O=C(Nc1cccc(CN2CCCC2)n1)c1cccc2[nH]c(-c3cc(F)ccc3C(F)(F)F)nc12", "note": "[Compound 623]", "EC1.5": "A (EC1.5<1.0 uM)", "Fold Act. (percent maximum fold activation)": "A (Fold activation >200%)"}, {"molecule": "O=C(Nc1ccc(CN2CCOCC2)cn1)c1cccc2[nH]c(-c3cc(F)ccc3C(F)(F)F)nc12", "note": "[Compound 624, 2-(5-fluoro-2-(trifluoromethyl)phenyl)-N-(5-(morpholinomethyl)pyridin-2-yl)-1H-benzo[d]imidazole-4-carboxamide]", "EC1.5": "B (EC1.5 1-25 uM)", "Fold Act. (percent maximum fold activation)": "A (Fold activation >200%)"}, {"molecule": "O=C(Nc1ccc(CN2CCCC2)cn1)c1cccc2[nH]c(-c3cc(F)ccc3C(F)(F)F)nc12", "note": "[Compound 625]", "EC1.5": "A (EC1.5<1.0 uM)", "Fold Act. (percent maximum fold activation)": "A (Fold activation >200%)"}, {"molecule": "Cc1cccc(-c2nc3c(C(=O)Nc4nccs4)cccc3[nH]2)c1OCCN1CCOCC1", "note": "[Compound 626]", "EC1.5": "B (EC1.5 1-25 uM)", "Fold Act. (percent maximum fold activation)": "A (Fold activation >200%)"}, {"molecule": "Cc1cccc(-c2nc3c(C(=O)Nc4ccccn4)cccc3[nH]2)c1OCCN1CCOCC1", "note": "[Compound 627]", "EC1.5": "B (EC1.5 1-25 uM)", "Fold Act. (percent maximum fold activation)": "A (Fold activation >200%)"}, {"molecule": "O=C(Nc1nccs1)c1cc(N2CCOCC2)cc2[nH]c(-c3ccccc3C(F)(F)F)nc12", "note": "[Compound 628, 6-morpholino-N-(thiazol-2-yl)-2-(2-(trifluoromethyl)phenyl)-1H-benzo[d]imidazole-4-carboxamide]", "EC1.5": "A (EC1.5<1.0 uM)", "Fold Act. (percent maximum fold activation)": "A (Fold activation >200%)"}, {"molecule": "O=C(Nc1ccccn1)c1cc(N2CCOCC2)cc2[nH]c(-c3ccccc3C(F)(F)F)nc12", "note": "[Compound 629]", "EC1.5": "A (EC1.5<1.0 uM)", "Fold Act. (percent maximum fold activation)": "A (Fold activation >200%)"}, {"molecule": "O=C(Nc1cccnc1)c1cc(N2CCOCC2)cc2[nH]c(-c3ccccc3C(F)(F)F)nc12", "note": "[Compound 630]", "EC1.5": "A (EC1.5<1.0 uM)", "Fold Act. (percent maximum fold activation)": "A (Fold activation >200%)"}, {"molecule": "O=C(Nc1cccnn1)c1cc(N2CCOCC2)cc2[nH]c(-c3ccccc3C(F)(F)F)nc12", "note": "[Compound 631]", "EC1.5": "A (EC1.5<1.0 uM)", "Fold Act. (percent maximum fold activation)": "A (Fold activation >200%)"}, {"molecule": "COc1cc(C(=O)Nc2ccccn2)c2nc(-c3ccccc3C(F)(F)F)[nH]c2c1", "note": "[Compound 632, 6-methoxy-N-(pyridin-2-yl)-2-(2-(trifluoromethyl)phenyl)-1H-benzo[d]imidazole-4-carboxamide]", "EC1.5": "A (EC1.5<1.0 uM)", "Fold Act. (percent maximum fold activation)": "A (Fold activation >200%)"}, {"molecule": "COc1cc(C(=O)Nc2nccs2)c2nc(-c3ccccc3C(F)(F)F)[nH]c2c1", "note": "[Compound 634]", "EC1.5": "A (EC1.5<1.0 uM)", "Fold Act. (percent maximum fold activation)": "A (Fold activation >200%)"}, {"molecule": "COc1cc(C(=O)Nc2nccs2)c2nc(-c3ccc(Cl)cc3C(F)(F)F)[nH]c2c1", "note": "[Compound 635]", "EC1.5": "A (EC1.5<1.0 uM)", "Fold Act. (percent maximum fold activation)": "A (Fold activation >200%)"}, {"molecule": "O=C(Nc1ccccn1)c1cncc2[nH]c(-c3ccccc3C(F)(F)F)nc12", "note": "[Compound 636]", "EC1.5": "A (EC1.5<1.0 uM)", "Fold Act. (percent maximum fold activation)": "A (Fold activation >200%)"}, {"molecule": "O=C(Nc1cccnc1)c1cncc2[nH]c(-c3ccccc3C(F)(F)F)nc12", "note": "[Compound 637]", "EC1.5": "A (EC1.5<1.0 uM)", "Fold Act. (percent maximum fold activation)": "A (Fold activation >200%)"}, {"molecule": "O=C(Nc1cccnn1)c1cncc2[nH]c(-c3ccccc3C(F)(F)F)nc12", "note": "[Compound 638]", "EC1.5": "A (EC1.5<1.0 uM)", "Fold Act. (percent maximum fold activation)": "A (Fold activation >200%)"}, {"molecule": "Cc1cnc(NC(=O)c2cncc3[nH]c(-c4ccccc4C(F)(F)F)nc23)s1", "note": "[Compound 639]", "EC1.5": "A (EC1.5<1.0 uM)", "Fold Act. (percent maximum fold activation)": "A (Fold activation >200%)"}, {"molecule": "O=C(Nc1nccs1)c1cc(N2CCOCC2)cc2[nH]c(-c3ccc(Cl)cc3C(F)(F)F)nc12", "note": "[Compound 640]", "EC1.5": "A (EC1.5<1.0 uM)", "Fold Act. (percent maximum fold activation)": "A (Fold activation >200%)"}, {"molecule": "O=C(Nc1ccccn1)c1cc(N2CCOCC2)cc2[nH]c(-c3ccc(Cl)cc3C(F)(F)F)nc12", "note": "[Compound 641]", "EC1.5": "A (EC1.5<1.0 uM)", "Fold Act. (percent maximum fold activation)": "A (Fold activation >200%)"}, {"molecule": "O=C(Nc1cccnc1)c1cc(N2CCOCC2)cc2[nH]c(-c3ccc(Cl)cc3C(F)(F)F)nc12", "note": "[Compound 642]", "EC1.5": "A (EC1.5<1.0 uM)", "Fold Act. (percent maximum fold activation)": "A (Fold activation >200%)"}, {"molecule": "O=C(Nc1cccnn1)c1cc(N2CCOCC2)cc2[nH]c(-c3ccc(Cl)cc3C(F)(F)F)nc12", "note": "[Compound 643]", "EC1.5": "A (EC1.5<1.0 uM)", "Fold Act. (percent maximum fold activation)": "A (Fold activation >200%)"}, {"molecule": "O=C(Nc1nccs1)c1cc(N2CCOCC2)cc2[nH]c(-c3cc(F)ccc3C(F)(F)F)nc12", "note": "[Compound 644]", "EC1.5": "A (EC1.5<1.0 uM)", "Fold Act. (percent maximum fold activation)": "A (Fold activation >200%)"}, {"molecule": "O=C(Nc1ccccn1)c1cc(N2CCOCC2)cc2[nH]c(-c3cc(F)ccc3C(F)(F)F)nc12", "note": "[Compound 645]", "EC1.5": "A (EC1.5<1.0 uM)", "Fold Act. (percent maximum fold activation)": "A (Fold activation >200%)"}, {"molecule": "O=C(Nc1cccnc1)c1cc(N2CCOCC2)cc2[nH]c(-c3cc(F)ccc3C(F)(F)F)nc12", "note": "[Compound 646]", "EC1.5": "A (EC1.5<1.0 uM)", "Fold Act. (percent maximum fold activation)": "A (Fold activation >200%)"}, {"molecule": "O=C(Nc1cccnn1)c1cc(N2CCOCC2)cc2[nH]c(-c3cc(F)ccc3C(F)(F)F)nc12", "note": "[Compound 647]", "EC1.5": "A (EC1.5<1.0 uM)", "Fold Act. (percent maximum fold activation)": "A (Fold activation >200%)"}, {"molecule": "O=C(Nc1nccs1)c1cncc2[nH]c(-c3ccc(Cl)cc3C(F)(F)F)nc12", "note": "[Compound 648]", "EC1.5": "A (EC1.5<1.0 uM)", "Fold Act. (percent maximum fold activation)": "A (Fold activation >200%)"}, {"molecule": "O=C(Nc1ccccn1)c1cncc2[nH]c(-c3ccc(Cl)cc3C(F)(F)F)nc12", "note": "[Compound 649]", "EC1.5": "A (EC1.5<1.0 uM)", "Fold Act. (percent maximum fold activation)": "A (Fold activation >200%)"}, {"molecule": "O=C(Nc1cccnc1)c1cncc2[nH]c(-c3ccc(Cl)cc3C(F)(F)F)nc12", "note": "[Compound 650]", "EC1.5": "A (EC1.5<1.0 uM)", "Fold Act. (percent maximum fold activation)": "A (Fold activation >200%)"}]}]}
